Data from US20160367578A1, “METHODS AND COMPOSITIONS FOR ERADICATING LEUKEMIC CELLS” (priority 2013, published 2016).
Entries after “also recorded” stand apart in the source; their conditions may differ. Like-named read-outs stand apart in the source and are kept apart here.

What was measured:
MLL-AF9 cells = test: MLL-AF9 viability under chemotherapy with or w/o MS-5 stromal layer, transwell inserts and CBX (7AAD FACS); type: cell-based, mouse
From the text: Viability was detected via GFP expression and 7AAD exclusion.
To test this hypothesis, we evaluated the response of MLL-AF9 leukemic cells to chemotherapy in vitro, with and without supporting bone marrow stromal cells using time-lapse video microscopy combined with flow cytometry. […] MS-5 are murine bone-marrow stromal cells that were previously shown to support hematopoietic stem and progenitor cells (Itoh, et al., Experimental Hematology 21, 145-153 (1989) and Schajnovitz, et al., Nature Immunology 12, 391-8 (2011)). […] In order to distinguish between Stromal-leukemic (heterotypic) interactions and leukemic-leukemic (homotypic) interactions, we separated the MLL-AF9 from the stroma by transwell inserts, to restrict heterotypic interactions while allowing homotypic interactions.
Since adhesion interactions of hematopoietic cells are commonly accompanied with intercellular communication, we then tested the potential role of gap junctions activity in drug resistance. Gap junction intercellular channels, which are homo- and hetero-hexamers of connexin proteins, facilitate intercellular communication between contacting cells via the passage of secondary messengers, such as calcium and cAMP^17.

[1] = tested on: primary bone marrow leukocytes or primary peripheral blood leukocytes; test: Viability of normal primary leukocytes exposed to CBX, alone or in 1:1 mixtures (7AAD FACS); type: cell-based, mouse; parameters: sensitivity of wild type primary leukocytes from BM or PB: dose or concentration left out as unconfirmed; conditions: for effect on normal counterparts in 1:1 mixtures with different AML cells: MLL-AF9 clone A/B or HoxA9/Meis1 mixtures
Experimental: Cells were distinguished by Cd45.1/CD45.2 expression and cell viability was determined by % of 7AAD-negative cells, in FACS analysis.
(§1) We then asked how blockage of gap junction intercellular communication affects AML cells, without additional treatment. […] In order to exclude the possibility of clone specific effects, we have repeated the experiments with a different MLL-AF9 clone, generated independently, and also included HoxA9/Meis1 AML cells that represent a different type of AML.

[2] = tested on: murine AML cells (MLL-AF9 clone A, MLL-AF9 clone B, HoxA9/Meis1 cells); test: Viability of murine AML cells in 1:1 mixtures with normal leukocytes exposed to CBX for 16 hours; type: cell-based, mouse
Experimental: Cells were distinguished by Cd45.1/CD45.2 expression and cell viability was determined by % of 7AAD-negative cells, in FACS analysis. (*p<0.01).
Cells were distinguished by CD45.1/CD45.2 expression and cell viability was determined by % of 7AAD-negative cells, in FACS analysis (*p<0.01).
as §1

[3] = tested on: bone marrow primary leukocytes (normal stem cells); test: Colony formation assay (CFU-C) on bone marrow primary leukocytes; type: cell-based, mouse; conditions: increasing concentrations of carbenoxolone
human AML cell line U937 = test: Neutrophil differentiation (CD66b+/CD14-) by FACS in U937; type: cell-based; conditions: U937, 16 hours
human AML cell line HL60 = test: Neutrophil differentiation (CD66b+/CD14-) by FACS in HL60; type: cell-based; conditions: HL60, 16 hours
human APL cell line HL60 = test: HL60 viability (flow cytometry) and colony formation after CBX; type: cell-based; conditions: viability 16 hours, colony formation 7 days post exposure
[4] = tested on: Mac1 (CD11b, integrin αm) in MLL-AF9 cells; test: Mac1 expression in CBX treated mice leukemic cells; type: cell-based, mouse; conditions: 7AAD-negative MLL-AF9 cells undergoing apoptosis
[5] = tested on: Mac1 in human leukemic cell lines U937, HL60 and THP1; test: Myelo-marker flow cytometry in CBX-treated human leukemic cell lines; type: cell-based; conditions: human leukemias, CBX 16 h
From the text: FIGS. 34A-34D are bar graphs quantifying myelo-markers CD11b (FIG. 34A), CD14+ (FIG. 34B), CD66b+ (FIG. 34C), and CD66+/CD14+ (FIG. 34D) in CBX-treated primary normal human leukocytes as compared to CBX-treated human leukemic cell lines U937, HL60 and THP1.

MLL-AF9 leukemia [6] = test: MLL-AF9 leukemia in non-irradiated mice, intraperitoneal CBX with or w/o chemotherapy (survival, IVIS, flow cytometry); type: in vivo, mouse
Experimental: Chemo: cytarabine (100 mg/kg) and doxorubicin (3 mg/kg) to the subject for a period of 3 days, followed by administering cytarabine alone (100 mg/kg) to the subject for a period of 2 days.
Leukemia was induced in mice by intravenously injecting 1 million live MLL-AF9 leukemic cells (expressing GFP and luciferase) into non-irradiated recipients.
We first studied the immediate response of AML cells to induction chemotherapy in a mouse model of human MLL-AF9 leukemia. MLL-AF9 is a fusion protein, encoded by the t(9; 11)(p22; q23) translocation (Krivtsov, et al. 2006 and Sykes, et al., Cell 146, 697-708 (2011)), present in leukemic blasts derived from patients with AML and is associated with poor prognosis (Schoch, et al., Blood 102, 2395-402 (2003)). In order to generate primary MLL-AF9 leukemic cells for our experiments, we introduced the MLL-AF9 oncogene via retroviral transduction into lineage depleted bone marrow cells from B6.SJL mice, as depicted in FIG. 1A. Sorted GFP positive cells were then intravenously injected into sub-lethally irradiated C57B16 recipients and MLL-AF9 GFP-positive leukemic cells were harvested 3 months later, at a terminal stage of disease. In order to synchronize the timing of the treatment and to visualize disease progression, we transduced primary MLL-AF9 GFP-positive cells with Luciferase lentivirus. Then, we selected Luciferase expressing cells with antibiotics and transplanted 1 million double positive leukemic cells into non-irradiated recipients and monitored disease progression by whole body bioluminescence imaging (FIGS. 1A and 1B).
1 week after treatment, mice were imaged and then sacrificed to evaluate treatment outcome.

MLL-AF9 leukemia [7] = tested on: MLL-AF9 leukemia; parameters: autopsy finding: dose or concentration left out as unconfirmed
gap junctions = conditions: 100 μM; cited from earlier work
[8] = 75 mg/kg CBX in combination with chemotherapy

With CC1(C)[C@@H](OC(=O)CCC(=O)O)CC[C@]2(C)[C@H]3C(=O)C=C4[C@@H]5C[C@@](C)(C(=O)O)CC[C@]5(C)CC[C@@]4(C)[C@]3(C)CC[C@@H]12 [CBX, Carbenoxolone] the stroma-mediated drug resistance (MLL-AF9 cells; 25 nM cytarabine and 10 nM doxorubicin as chemo, 16 hours) was “overcomes stroma-mediated drug resistance”, the eradication (MLL-AF9 cells; co-cultures separated with transwell inserts, CBX + chemotherapy) was “more than 90%” and the MLL-AF9 cells eradicated (MLL-AF9 cells; coculture with MS-5, 100 μM CBX 20 minutes before induction chemotherapy) was ~90%. The “cytotoxic effects on normal cells” value [1] was “no cytotoxic effects”, the “effect on normal BM leukocytes in 1:1 mixture with MLL-AF9” value ([1]; CBX as high as 400 μM, 16 hours) was “without affecting the normal cells” and the “eradication of normal blood cells” value ([1]; CBX at greater than or equal to 100 μM, 16 hours) was “not the eradication of normal blood cells”. The “sensitivity of wild type primary leukocytes from BM or PB” value ([1]; CBX even at high concentration, 16 hours) was “not sensitive”, the “effect on normal counterparts in 1:1 mixtures with different AML cells” value ([1]; 16 hours) was “without affecting normal cells; also recorded: without affecting non-leukemic normal counterparts” and the “effect on normal counterparts in 1:1 mixtures with different AML cells” value ([1]; 16 hours, listed as carbenoxolone) was “without affecting non-leukemic normal counterparts”. For the same compound, the “eradication of different murine AML cells” value [2] was “selectively eradicates”, the “eradication of different murine AML cells” value ([2]; listed as Carbenoxolone) was “selective eradication” and the “eradication of different murine AML cells” value ([2]; listed as carbenoxolone) was “selectively eradicates”. For the same compound, the “effect on normal stem cells (CFU-C)” value [3] was “inducing proliferation of normal stem cells”, the “neutrophil differentiation (CD66b+/CD14−)” value (human AML cell line U937) was “induces rapid (within 16 hours) neutrophil differentiation” and the “neutrophil differentiation (CD66b+/CD14−)” value (human AML cell line HL60) was “induces rapid (within 16 hours) neutrophil differentiation”. The “sensitivity of HL60” value (human APL cell line HL60) was “sensitive”, the “Mac1 (CD11b) expression” value [4] was “downregulated” and the Mac1 expression [5] was “downregulated”. The “leukemia status 1 week after treatment (luciferase imaging, flow cytometry)” value (MLL-AF9 leukemia [6]; 25 mg/kg CBX 24 hours before and throughout 5-days induction chemotherapy) was “entirely leukemia free”, the survival (MLL-AF9 leukemia [6]; Carbenoxolone 20 mg/kg in combination with chemotherapy, from Day 27) was “prolonged survival” and the survival (MLL-AF9 leukemia [6]; Carbenoxolone alone, 20 mg/kg 3 or 6 days from Day 27, or 10/20/30 mg/kg ascending from Day 68) was “prolonged survival”. For the same compound, the survival (MLL-AF9 leukemia [6]; IP, 20 mg/kg for 6 days from day 27 (with chemo arm) or 10/20/30 mg/kg ascending from day 68) was “prolonged survival”, the survival (MLL-AF9 leukemia [6]; IP, 50 mg/kg 6 days beginning at day 27) was “prolonged survival” and the CBX-treated mice survived (MLL-AF9 leukemia [7]; 25 mg/kg CBX alone or in combination with induction chemotherapy) was 40%-60%. For the same compound, the “survival vs PBS and chemotherapy controls” value (MLL-AF9 leukemia [7]; 25 mg/kg CBX in combination with induction chemotherapy) was “no statistically significant difference in survival”, the CBX-treated mice survived (MLL-AF9 leukemia [7]; 50 mg/kg CBX alone) was 20% and the survival (MLL-AF9 leukemia [7]; 50 mg/kg CBX alone) was “early mortality with no statistically significant difference”. For the same compound, the “survival vs PBS and chemotherapy controls” value (MLL-AF9 leukemia [7]; 50 mg/kg CBX in combination with chemotherapy) was “significant increased survival”, the “survival vs PBS controls” value (MLL-AF9 leukemia [7]; 75 mg/kg CBX alone) was “significant increased survival” and the CBX-treated mice survived (MLL-AF9 leukemia [7]; [8]) was 20%. For the same compound, the survival (MLL-AF9 leukemia [7]; [8]) was “early mortality with no statistically significant difference”, the “adverse effect of prolonged administration” value (MLL-AF9 leukemia [7]; SC, daily, 14 days) was “lethal pseudo-hyperadlosteronism with no sign of leukemia” and the “autopsy, signs of leukemia” value (MLL-AF9 leukemia [7]; chemotherapy plus 50 mg/kg CBX) was “no signs of leukemia”. For the same compound, the autopsy finding (MLL-AF9 leukemia [7]; mouse that died at day 28 after CBX treatment) was “gastric edema”, the “adverse effect of chronic systemic exposure” value (MLL-AF9 leukemia [7]; mouse, in vivo) was “acute lethal pseudo-hyperaldosteronism in some case” and the early mortality (MLL-AF9 leukemia [7]; mouse, in vivo) was “early mortality due to acute lethal pseudo-hyperadlosteronism”. For the same compound, the “cause of early mortality” value (MLL-AF9 leukemia [7]; mouse, in vivo, sc) was “most likely induced by acute pseudo-hyperaldosteronism, and not by leukemia”, the survival (MLL-AF9 leukemia [7]; mouse, in vivo, sc, 50 mg/kg) was “prolonged survival” and the survival (MLL-AF9 leukemia [7]; mouse, in vivo, sc, 75 mg/kg) was “prolonged survival”. The “block of cell-cell communication” value (gap junctions) was “efficiently blocks cell-cell communication” and the cell viability (gap junctions) was “without affecting cell viability”.
